Test results taken from ChEMBL document CHEMBL5620394, “Synthesis of new antiproliferative 1,3,4-substituted-pyrrolo[3,2-c]quinoline derivatives, biological and in silico insights” (Eur J Med Chem, 2023).
Activity calls are given as the source filed them. The rule behind the calls is not given here.

Tests used:
[1] = system: SNB-75; experiment: Antiproliferative activity against human SNB-75 cells assessed as cell growth at 10 uM incubated for 48 hrs by sulforhodamine B assay relative to control; assay type: functional; details: read-out: Activity
[2] = system: NCI-H522; experiment: Antiproliferative activity against human NCI-H522 cells assessed as cell growth at 10 uM incubated for 48 hrs by sulforhodamine B assay relative to control; assay type: functional; details: read-out: Activity
[3] = system: MDA-MB-231; experiment: Growth inhibition of human MDA-MB-231 cells at 50 uM incubated for 72 hrs by cell counter analysis relative to control; assay type: functional; details: read-out: GI
[4] = system: MCF7; experiment: Induction of cell cycle arrest in human MCF7 cells assessed as increase in accumulation of cells at G2/M phase at 5 uM incubated for 72 hrs by propidium iodide staining based flow cytometry analysis; assay type: functional
[5] = system: MCF7; experiment: Growth inhibition of human MCF7 cells at 50 uM incubated for 72 hrs by cell counter analysis relative to control; assay type: functional; details: read-out: GI
[6] = system: MDA-MB-231; experiment: Antiproliferative activity against human MDA-MB-231 cells assessed as cell growth at 10 uM incubated for 48 hrs by sulforhodamine B assay relative to control; assay type: functional; details: read-out: Activity
[7] = Growth inhibition of human MCF-10A cells at 10 uM incubated for 72 hrs by cell counter analysis relative to control; assay type: toxicity, cell-based; details: read-out: GI
[8] = system: MCF7; experiment: Inhibition of colony formation in human MCF7 cells incubated for 72 hrs by crystal violet staining assay; assay type: functional, cell-based
[9] = system: MCF7; experiment: Induction of cell cycle arrest in human MCF7 cells assessed as increase in accumulation of cells at G2/M phase at 10 to 25 uM incubated for 72 hrs by propidium iodide staining based flow cytometry analysis; assay type: functional; details: dose 10-25 µM
[10] = system: IGROV-1; experiment: Antiproliferative activity against human IGROV-1 cells assessed as cell growth at 10 uM incubated for 48 hrs by sulforhodamine B assay relative to control; assay type: functional; details: read-out: Activity
[11] = system: HCT-116; experiment: Antiproliferative activity against human HCT-116 cells assessed as cell growth at 10 uM incubated for 48 hrs by sulforhodamine B assay relative to control; assay type: functional; details: read-out: Activity
[12] = system: SK-OV-3; experiment: Antiproliferative activity against human SK-OV-3 cells assessed as cell growth at 10 uM incubated for 48 hrs by sulforhodamine B assay relative to control; assay type: functional; details: read-out: Activity
[13] = system: MCF7; experiment: Growth inhibition of human MCF7 cells at 10 uM incubated for 72 hrs by cell counter analysis relative to control; assay type: functional; details: read-out: GI
[14] = system: MCF7; experiment: Antiproliferative activity against human MCF7 cells assessed as cell growth at 10 uM incubated for 48 hrs by sulforhodamine B assay relative to control; assay type: functional; details: read-out: Activity
[15] = system: MCF7; experiment: Induction of cell cycle arrest in human MCF7 cells assessed as decrease in accumulation of cells at G0/G1 phase incubated for 72 hrs by propidium iodide staining based flow cytometry analysis; assay type: functional
[16] = system: UACC-257; experiment: Antiproliferative activity against human UACC-257 cells assessed as cell growth at 10 uM incubated for 48 hrs by sulforhodamine B assay relative to control; assay type: functional; details: read-out: Activity
[17] = system: MCF7; experiment: Growth inhibition of human MCF7 cells at 25 uM incubated for 24 hrs by cell counter analysis relative to control; assay type: functional; details: read-out: GI
[18] = system: K562; experiment: Antiproliferative activity against human K562 cells assessed as cell growth at 10 uM incubated for 48 hrs by sulforhodamine B assay relative to control; assay type: functional; details: read-out: Activity
[19] = system: T47D; experiment: Antiproliferative activity against human T47D cells assessed as cell growth at 10 uM incubated for 48 hrs by sulforhodamine B assay relative to control; assay type: functional; details: read-out: Activity
[20] = system: KM12; experiment: Antiproliferative activity against human KM12 cells assessed as cell growth at 10 uM incubated for 48 hrs by sulforhodamine B assay relative to control; assay type: functional; details: read-out: Activity
[21] = system: MOLT-4; experiment: Antiproliferative activity against human MOLT-4 cells assessed as cell growth at 10 uM incubated for 48 hrs by sulforhodamine B assay relative to control; assay type: functional; details: read-out: Activity
[22] = system: ACHN; experiment: Antiproliferative activity against human ACHN cells assessed as cell growth at 10 uM incubated for 48 hrs by sulforhodamine B assay relative to control; assay type: functional; details: read-out: Activity
[23] = system: MDA-MB-435; experiment: Antiproliferative activity against human MDA-MB-435 cells assessed as cell growth at 10 uM incubated for 48 hrs by sulforhodamine B assay relative to control; assay type: functional; details: read-out: Activity
[24] = system: RPMI-8226; experiment: Antiproliferative activity against human RPMI-8226 cells assessed as cell growth at 10 uM incubated for 48 hrs by sulforhodamine B assay relative to control; assay type: functional; details: read-out: Activity
[25] = system: SF-295; experiment: Antiproliferative activity against human SF-295 cells assessed as cell growth at 10 uM incubated for 48 hrs by sulforhodamine B assay relative to control; assay type: functional; details: read-out: Activity
[26] = system: MDA-MB-231; experiment: Growth inhibition of human MDA-MB-231 cells at 10 uM incubated for 24 hrs by cell counter analysis relative to control; assay type: functional; details: read-out: GI
[27] = system: UO-31; experiment: Antiproliferative activity against human UO-31 cells assessed as cell growth at 10 uM incubated for 48 hrs by sulforhodamine B assay relative to control; assay type: functional; details: read-out: Activity
[28] = system: MCF7; experiment: Induction of cell cycle arrest in human MCF7 cells assessed as increase in accumulation of cells at S phase at 25 uM incubated for 72 hrs by propidium iodide staining based flow cytometry analysis; assay type: functional
[29] = system: MCF7; experiment: Growth inhibition of human MCF7 cells at 25 uM incubated for 72 hrs by cell counter analysis relative to control; assay type: functional; details: read-out: GI
[30] = system: SR; experiment: Antiproliferative activity against human SR cells assessed as cell growth at 10 uM incubated for 48 hrs by sulforhodamine B assay relative to control; assay type: functional; details: read-out: Activity
[31] = system: A549; experiment: Antiproliferative activity against human A549 cells assessed as cell growth at 10 uM incubated for 48 hrs by sulforhodamine B assay relative to control; assay type: functional; details: read-out: Activity
[32] = system: MCF7; experiment: Induction of cell cycle arrest in human MCF7 cells assessed as increase in accumulation of cells at sub-G1 phase at 10 uM incubated for 72 hrs by propidium iodide staining based flow cytometry analysis; assay type: functional
[33] = system: HOP-62; experiment: Antiproliferative activity against human HOP-62 cells assessed as cell growth at 10 uM incubated for 48 hrs by sulforhodamine B assay relative to control; assay type: functional; details: read-out: Activity
[34] = system: MDA-MB-468; experiment: Antiproliferative activity against human MDA-MB-468 cells assessed as cell growth at 10 uM incubated for 48 hrs by sulforhodamine B assay relative to control; assay type: functional; details: read-out: Activity
[35] = Growth inhibition of human MCF-10A cells at 25 uM incubated for 24 to 48 hrs by cell counter analysis relative to control; assay type: toxicity, cell-based; details: time 24-48 hrs, read-out: GI
[36] = system: MCF7; experiment: Growth inhibition of human MCF7 cells at 10 uM incubated for 24 hrs by cell counter analysis relative to control; assay type: functional; details: read-out: GI
[37] = system: NCI-H226; experiment: Antiproliferative activity against human NCI-H226 cells assessed as cell growth at 10 uM incubated for 48 hrs by sulforhodamine B assay relative to control; assay type: functional; details: read-out: Activity
[38] = system: EKVX; experiment: Antiproliferative activity against human EKVX cells assessed as cell growth at 10 uM incubated for 48 hrs by sulforhodamine B assay relative to control; assay type: functional; details: read-out: Activity
[39] = system: CAKI-1; experiment: Antiproliferative activity against human CAKI-1 cells assessed as cell growth at 10 uM incubated for 48 hrs by sulforhodamine B assay relative to control; assay type: functional; details: read-out: Activity
[40] = system: LOX IMVI; experiment: Antiproliferative activity against human LOX IMVI cells assessed as cell growth at 10 uM incubated for 48 hrs by sulforhodamine B assay relative to control; assay type: functional; details: read-out: Activity
[41] = system: MCF7; experiment: Growth inhibition of human MCF7 cells at 50 uM incubated for 24 hrs by cell counter analysis relative to control; assay type: functional; details: read-out: GI
[42] = system: HCT-15; experiment: Antiproliferative activity against human HCT-15 cells assessed as cell growth at 10 uM incubated for 48 hrs by sulforhodamine B assay relative to control; assay type: functional; details: read-out: Activity
[43] = system: MDA-MB-231; experiment: Growth inhibition of human MDA-MB-231 cells at 10 uM incubated for 72 hrs by cell counter analysis relative to control; assay type: functional; details: read-out: GI
[44] = system: MDA-MB-231; experiment: Growth inhibition of human MDA-MB-231 cells at 50 uM incubated for 24 hrs by cell counter analysis relative to control; assay type: functional; details: read-out: GI
[45] = system: MCF7; experiment: Induction of cell cycle arrest in human MCF7 cells assessed as increase in accumulation of cells at sub-G1 phase at 5 uM incubated for 72 hrs by propidium iodide staining based flow cytometry analysis; assay type: functional
[46] = Growth inhibition of human MCF-10A cells at 50 uM incubated for 24 to 48 hrs by cell counter analysis relative to control; assay type: toxicity, cell-based; details: time 24-48 hrs, read-out: GI
[47] = system: PC-3; experiment: Antiproliferative activity against human PC-3 cells assessed as cell growth at 10 uM incubated for 48 hrs by sulforhodamine B assay relative to control; assay type: functional; details: read-out: Activity
[48] = system: MCF7; experiment: Induction of apoptosis in human MCF7 cells assessed as increase in ROS production at 5 to 25 uM by H2DCFDA staining based flow cytometric analysis; assay type: functional, cell-based; details: dose 5-25 µM
[49] = system: MDA-MB-231; experiment: Growth inhibition of human MDA-MB-231 cells at 25 uM incubated for 24 hrs by cell counter analysis relative to control; assay type: functional; details: read-out: GI
[50] = system: MDA-MB-231; experiment: Growth inhibition of human MDA-MB-231 cells at 25 uM incubated for 72 hrs by cell counter analysis relative to control; assay type: functional; details: read-out: GI
[51] = Growth inhibition of human MCF-10A cells at 10 uM incubated for 24 hrs by cell counter analysis relative to control; assay type: toxicity, cell-based; details: read-out: GI

## CC(=O)c1c(C)[nH]c2c1c(-c1ccc3c(c1)OCO3)nc1ccccc12
[1]
  growth at 10 µM: 46.5%
[2]
  growth at 10 µM: 101%
[3]
  inhibition of growth at 50 µM: 74%
[4]
  Activity: inactive
[5]
  inhibition of growth at 50 µM: 70%
[6]
  growth at 10 µM: 82.2%
[7]
  inhibition at 72 h, 10 µM: 11%
[8]
  inhibition: Dose-Dependent Effect
[9]
  Activity: Active
[10]
  growth at 10 µM: 60.1%
[11]
  growth at 10 µM: 84.3%
[12]
  growth at 10 µM: 88.8%
[13]
  inhibition of growth at 10 µM: 25%
[14]
  growth at 10 µM: 41.5%
[15]
  Activity: Dose-Dependent Effect
[16]
  growth at 10 µM: 73.9%
[17]
  inhibition of growth at 25 µM: 38%
[18]
  growth at 10 µM: 76.8%
[19]
  growth at 10 µM: 70.3%
[20]
  growth at 10 µM: 74.6%
[21]
  growth at 10 µM: 107%
[22]
  growth at 10 µM: 92.4%
[23]
  growth at 10 µM: 42.1%
[24]
  growth at 10 µM: 90.3%
[25]
  growth at 10 µM: 91.1%
[26]
  inhibition of growth at 10 µM: 37%
[27]
  growth at 10 µM: 26.4%
[28]
  Activity: Active
[29]
  inhibition of growth at 25 µM: 41%
[30]
  growth at 10 µM: 31.6%
[31]
  growth at 10 µM: 81.7%
[32]
  Activity: Active
[33]
  growth at 10 µM: 67.5%
[34]
  growth at 10 µM: 59.5%
[35]
  inhibition at 25 µM: 42%
[36]
  inhibition of growth at 10 µM: 32%
[37]
  growth at 10 µM: 65.6%
[38]
  growth at 10 µM: 88.3%
[39]
  growth at 10 µM: 58.9%
[40]
  growth at 10 µM: 86.5%
[41]
  inhibition of growth at 50 µM: 54%
[42]
  growth at 10 µM: 69.5%
[43]
  inhibition of growth at 10 µM: 28%
[44]
  inhibition of growth at 50 µM: 60%
[45]
  Activity: Active
[46]
  inhibition at 50 µM: 63%
[47]
  growth at 10 µM: 75.8%
[48]
  Activity: Active
[49]
  inhibition of growth at 25 µM: 48%
[50]
  inhibition of growth at 25 µM: 35%
[51]
  inhibition at 24 h, 10 µM: 14%
